These results are taken from patent US4078049A, “Acetylcholine assay” (Hoffmann-La Roche Inc., priority 1977, dated 1978).

The subject of the series is antibody in the antiserum of rabbit immunized by the acetylcholine bovine serum albumin immunogen. The series is described as follows: Radioimmunoassay specificity: inhibition of binding of acetylcholine-H^3 to the antibody. The procedure: The volume was adjusted to 0.5 ml with phosphate-buffered saline, pH 7.4, which is the optimal pH for the assay. […]. […] After 2 washings with 50% saturated ammonium sulfate, the precipitate was dissolved in 0.5 ml of water. […] The 12 ml washings were all collected in the vial. The radioactivity was then counted with a Beckman liquid scintillation counter. The dilution of the antiserum chosen for further studies was 1:50.

As to `CC(=O)OCC[N+](C)(C)C` [Acetylcholine, acetylcholine], the IC50 (read-out: concentration producing 50% inhibition of binding of acetylcholine --H^3 to the antibody, antiserum 1:50, incubated 2 hours at 4° C, pH 7.4, eserine present, ammonium sulfate precipitation) was 0.03 nM.

`CC(=O)O` [acetate]: the “recognition by the antibody (competition with labelled acetylcholine)” value (antiserum incubated with acetate in the presence of labelled acetylcholine) was “failed to recognize”.
